Experiment [1] has as its system transient focal cerebral ischemia induced by Middle Cerebral Artery Occlusion (MCAO). Briefly: Animal cerebral infarct assay: two-hour Middle Cerebral Artery Occlusion (MCAO) with reperfusion. It counts as in vivo, rat. The note with it: intraventricular (i.c.v.), 0.0067 mg/kg to 0.67 mg/kg. From the text: This assay is used to assess the efficacy of the test agents in protecting the brain against necrosis following cerebral ischemia induced in rats. Middle Cerebral Artery Occlusion (MCAO) is a widely used technique to induce transient focal cerebral ischemia in animal models. […] Furthermore, this model accurately represents the involvement of middle cerebral artery (MCA), the most affected vessel in human stroke, and also allows reperfusion as it happens in humans. MCAO by a two-hour occlusion is used to produce the maximum size of cortical infarction without increased mortality at twenty-four hours. Male Wistar rats (Hadan, Ind.) weighing 300-350 g were allowed free access to water and commercial rodent diet under standard laboratory conditions. The room temperature was maintained at 20-23° C. and room illumination was on a 12/12-hour light/dark cycle. The rats were acclimatized to the laboratory environment 5 to 7 days prior to the study. Before surgery, the animals were fasted overnight, but had free access to water. The rats were anesthetized with 3.0% isoflurane (Aerrane, Front Dodge, Iowa) in […] and the animal's neck was shaved and sterilized before the operation. The animals were subjected to two hours MCAO using a modified intraluminal filament technique. A midline incision on the ventral part of the neck was made to expose external and internal carotid arteries. The right external and common carotid arteries were ligated by a suture (silk 5/0, Carlisle Laboratories, Farmers Branch, Tex.) and the right internal artery was temporarily ligated by a microvascular clip (Fine Science Tool Inc., Foster City, Calif.). A small incision was made in the common carotid artery and a nylon filament, its tip rounded by heating, prepared from a fishing line (Stren Fishing Lines, Wilmington, Del.) was inserted from the right common carotid artery. The filament was advanced into the internal carotid artery 18-20 mm from the point of bifurcation of internal and external arteries and a suture was tightly ligated around the filament. Two hours post occlusion, the animals were re-anesthetized to allow reperfusion for the remaining of the experiment by removal of the filament. The anesthetized animal were placed on a stereotaxic apparatus (Harvard Apparatus, S. Natick, Mass.). Anesthesia was maintained by inhalation of 3.0% isoflurane in […] throughout the entire procedure. The scalp was shaved and sterilized prior to surgery. A midline sagittal incision about 3 cm long was made slightly behind the eyes to expose the skull. The skull was scraped with a rounded end spatula to remove periosteal connective tissue. A bur hole was placed 1.5 mm lateral, 1 mm posterior to the left of the bregma to mark the left lateral ventricle. A brain infusion cannula (ALZET CO. Palo Alto, Calif.) was inserted 4 mm deep into the hole. The desired depth was adjusted by attaching spacers to the cannula. The cannula was attached to a 4-cm silastic catheter (Helix Medical Inc.) fixed in place with dental cement (Ketac-cement, Norristown, Pa.). The catheter was either attached to a primed osmotic pump placed subcutaneously between the shoulder blades for permanent infusion or to a syringe for a short infusion. Anesthesia was maintained by inhalation of 3.0% isoflurane in […] throughout the entire procedure. The exterior site of the right femoral vein was shaved and sterilized prior to surgery. A 3 cm incision was made in the right groin region and the femoral vein was isolated. A small incision was made on the femoral vein temporarily ligated with a microvascular clip to introduce and advance a polyethylene (PE-50) catheter (Becton. Dickinson and Co., Sparks, Md.). The catheter was secured in place with suture (silk 5/0, Carlisle Laboratories, Farmers Branch, Tex.). The other end of the catheter was attached to a syringe filled with the heparinized saline for the bolus injection. […]

Experiment [2] concerns myocardial infarction by left coronary artery occlusion. Briefly: Model of myocardial infarction: left coronary ligation (Example 5). It counts as in vivo, rat. The note with it: dose of 0.67 mg/kg. Here is the method: Male Sprague-Dawley weighing 250-320 g are allowed free access to water and commercial rodent diet under standard laboratory conditions. Room temperature is maintained at 20-23° C. and room illumination is on a 12/12-hour light/dark cycle. Animals are acclimatized to the laboratory environment 5 to 7 days prior to the study and are fasted overnight prior to surgery.
Rats are anaesthetized with Urethane (1.2-1.5 gm/kg). Core body temperature is maintained at 37° C. by using a heating blanket. The surgical area is shaved, and a ventral midline incision is made to expose the trachea and jugular area. A catheter (PE50) is placed in the jugular for administration of compound and maintenance anesthesia. The trachea is incised and a 14-16-gauge modified intravenous catheter is inserted and tied in place as an endotracheal tube. The animal is placed in right lateral recumbency and initially placed on a Harvard ventilator with a tidal volume of 5-10 ml/kg. 100% O2 is delivered to the animals by the ventilator. ECG electrodes are placed to record a standard Lead II ECG. The surgical site is cleaned with alcohol swab, and a skin incision is made over rib cage over the 4th-5th intercostal space. […] The ECG is monitored for S-T changes indicative of ischemia. […] The ECG is monitored for the first 10 minutes of reperfusion. […]

One substance from patent US20020132845A1, “Compositions and methods for the prevention and treatment of tissue ischemia” (priority 2000, published 2002) can be followed below.

Regarding bromo-quercetin, the “reductions of infarct volumes” value in experiment [1] is “greater than 50%”. Also, the infarct size result in experiment [2] was “reduce infarct size”.
